Measurements from patent US20120328569A1, “INHIBITORS OF HEPATITIS C VIRUS NS5B POLYMERASE” (priority 2010, published 2012).

test system: HCV genotype 1b replicon; assay: HCV replicon assay, cell ELISA with antibody to replicon-encoded NS3/4A (genotype 1b replicon); format: cell-based, hepatitis C virus; conditions: Hepatitis C virus, 96 h, read-out: Replicon 1b IC50 (nM), HCV genotype 1b replicon cells, 96 hours incubation, NS3/4A ELISA readout
In short: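 Replicon-harbouring cells carrying neomycin phosphotransferase were incubated 96 h with a compound dilution series without G418. Replication was quantified indirectly by a cell ELISA detecting replicon-encoded NS3/4A. IC50 values were calculated relative to DMSO control with a four-parameter fit.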

Compound | IC50
CNC(=O)c1c(-c2ccc(F)cc2)oc2cc(N(C)S(C)(=O)=O)c(-c3cccc(-c4nc5ccc(CN)cc5s4)c3)cc12 [Example 297, 5-(3-(6-(aminomethyl)benzo[d]thiazol-2-yl)phenyl)-2-(4-fluorophenyl)-N-methyl-6-(N-methylmethylsulfonamido)benzofuran-3-carboxamide] | 20.5 nM
CNC(=O)c1c(-c2ccc(F)cc2)oc2cc(N(C)S(C)(=O)=O)c(-c3cccc(-c4nc5ccc(CN(C)C)cc5s4)c3)cc12 [Example 298, 5-(3-(6-((dimethylamino)methyl)benzo[d]thiazol-2-yl)phenyl)-2-(4-fluorophenyl)-N-methyl-6-(N-methylmethylsulfonamido)benzofuran-3-carboxamide] | 6 nM
CNC(=O)c1c(-c2ccc(F)cc2)oc2cc(N(C)S(C)(=O)=O)c(-c3cccc(-c4nc5cccnc5[nH]4)c3)cc12 [Example 299, 5-(3-(3H-imidazo[4,5-b]pyridin-2-yl)phenyl)-2-(4-fluorophenyl)-N-methyl-6-(N-methylmethylsulfonamido)benzofuran-3-carboxamide] | 3.3 nM
CNC(=O)c1c(-c2ccc(F)cc2)oc2cc(N(C)S(C)(=O)=O)c(-c3ccc(F)c(-c4nc5ccccc5[nH]4)c3)cc12 [Example 300] | 1.5 nM
CNC(=O)c1c(-c2ccc(F)cc2)oc2cc(N(C)S(C)(=O)=O)c(-c3ccc(F)c(-c4nc5cc(F)ccc5[nH]4)c3)cc12 [Example 301] | 1.9 nM
CNC(=O)c1c(-c2ccc(F)cc2)oc2cc(N(C)S(C)(=O)=O)c(-c3ccc(F)c(-c4nc5cc(C)ccc5[nH]4)c3)cc12 [Example 302] | 3.1 nM
CNC(=O)c1c(-c2ccc(F)cc2)oc2cc(N(C)S(C)(=O)=O)c(-c3cccc(-c4nc5c(C)cccc5[nH]4)c3)cc12 [Example 303] | 1.8 nM
CNC(=O)c1c(-c2ccc(F)cc2)oc2cc(N(C)S(C)(=O)=O)c(-c3cccc(-c4nc5c(F)cccc5[nH]4)c3)cc12 [Example 304] | 1.3 nM
CNC(=O)c1c(-c2ccc(F)cc2)oc2cc(N(C)S(C)(=O)=O)c(-c3cc(F)cc(-c4nc5cccnc5[nH]4)c3)cc12 [Example 305] | 1.1 nM
CNC(=O)c1c(-c2ccc(F)cc2)oc2cc(N(C)S(C)(=O)=O)c(-c3cc(F)cc(-c4nc5ccc(OC)nc5[nH]4)c3)cc12 [Example 306] | 28.8 nM
CNC(=O)c1c(-c2ccc(F)cc2)oc2cc(N(C)S(C)(=O)=O)c(-c3cc(F)cc(-c4nc5c(C)ccnc5[nH]4)c3)cc12 [Example 307] | 2.4 nM
CNC(=O)c1c(-c2ccc(F)cc2)oc2cc(N(C)S(C)(=O)=O)c(-c3ccc(F)c(-c4nc5cccnc5[nH]4)c3)cc12 [Example 308] | 2.5 nM
CNC(=O)c1c(-c2ccc(F)cc2)oc2cc(N(C)S(C)(=O)=O)c(-c3ccc(F)c(-c4nc5ccc(OC)nc5[nH]4)c3)cc12 [Example 309] | 3.7 nM
CNC(=O)c1c(-c2ccc(F)cc2)oc2cc(N(C)S(C)(=O)=O)c(-c3ccc(F)c(-c4nc5c(C)ccnc5[nH]4)c3)cc12 [Example 310] | 1.8 nM
CNC(=O)c1c(-c2ccc(F)cc2)oc2cc(N(C)S(C)(=O)=O)c(-c3ccc(F)c(-c4nc5cc(Cl)cnc5[nH]4)c3)cc12 [Example 311] | 1.7 nM
CNC(=O)c1c(-c2ccc(F)cc2)oc2cc(N(C)S(C)(=O)=O)c(-c3ccc(OC)c(-c4nc5cccnc5[nH]4)c3)cc12 [Example 312] | 1.1 nM
CNC(=O)c1c(-c2ccc(F)cc2)oc2cc(N(C)S(C)(=O)=O)c(-c3cc(OC)cc(-c4nc5cccnc5[nH]4)c3)cc12 [Example 314] | 1.5 nM
CNC(=O)c1c(-c2ccc(F)cc2)oc2cc(N(C)S(C)(=O)=O)c(-c3cc(OC)cc(-c4nc5ccc(OC)nc5[nH]4)c3)cc12 [Example 315] | 4.5 nM
CNC(=O)c1c(-c2ccc(F)cc2)oc2cc(N(C)S(C)(=O)=O)c(-c3cc(OC)cc(-c4nc5c(C)ccnc5[nH]4)c3)cc12 [Example 316] | 2.8 nM
CNC(=O)c1c(-c2ccc(F)cc2)oc2cc(N(C)S(C)(=O)=O)c(-c3cc(OC)cc(-c4nc5cc(Cl)cnc5[nH]4)c3)cc12 [Example 317] | 2.9 nM
CNC(=O)c1c(-c2ccc(F)cc2)oc2cc(N(C)S(C)(=O)=O)c(-c3cccc(-c4nc5c(C)ccnc5[nH]4)c3O)cc12 [Example 318] | 18.7 nM
CNC(=O)c1c(-c2ccc(F)cc2)oc2cc(N(C)S(C)(=O)=O)c(-c3ccc(Cl)c(-c4nc5cccnc5[nH]4)c3)cc12 [Example 319] | 13.6 nM
CNC(=O)c1c(-c2ccc(F)cc2)oc2cc(N(C)S(C)(=O)=O)c(-c3ccc(Cl)c(-c4nc5ccc(OC)nc5[nH]4)c3)cc12 [Example 320] | 13.1 nM
CNC(=O)c1c(-c2ccc(F)cc2)oc2cc(N(C)S(C)(=O)=O)c(-c3ccc(Cl)c(-c4nc5c(C)ccnc5[nH]4)c3)cc12 [Example 321] | 6.6 nM
CNC(=O)c1c(-c2ccc(F)cc2)oc2cc(N(C)S(C)(=O)=O)c(-c3ccc(Cl)c(-c4nc5cc(Cl)cnc5[nH]4)c3)cc12 [Example 322] | 19.5 nM
CNC(=O)c1c(-c2ccc(F)cc2)oc2cc(N(C)S(C)(=O)=O)c(-c3cc(C#N)cc(-c4nc5cccnc5[nH]4)c3)cc12 [Example 323] | 2.4 nM
CNC(=O)c1c(-c2ccc(F)cc2)oc2cc(N(C)S(C)(=O)=O)c(-c3cc(C#N)cc(-c4nc5ccc(OC)nc5[nH]4)c3)cc12 [Example 324] | 3.5 nM

Compound | IC50
CNC(=O)c1c(-c2ccc(F)cc2)oc2cc(N(C)S(C)(=O)=O)c(-c3cc(C#N)cc(-c4nc5c(C)ccnc5[nH]4)c3)cc12 [Example 325] | 3.2 nM
CNC(=O)c1c(-c2ccc(F)cc2)oc2cc(N(C)S(C)(=O)=O)c(-c3cccc(-c4nc5ccc(OC)nc5[nH]4)c3)cc12 [Example 327] | 3.8 nM
CNC(=O)c1c(-c2ccc(F)cc2)oc2cc(N(C)S(C)(=O)=O)c(-c3cccc(-c4nc5ccc(=O)[nH]c5[nH]4)c3)cc12 [Example 328] | 13.5 nM
CNC(=O)c1c(-c2ccc(F)cc2)oc2cc(N(C)S(C)(=O)=O)c(-c3cccc(-c4nc5ccc(OS(C)(=O)=O)nc5[nH]4)c3)cc12 [Example 329] | 4.9 nM
CNC(=O)c1c(-c2ccc(F)cc2)oc2cc(N(C)S(C)(=O)=O)c(-c3cccc(-c4nc5c(C)ccnc5[nH]4)c3)cc12 [Example 330] | 2.7 nM
CNC(=O)c1c(-c2ccc(F)cc2)oc2cc(N(C)S(C)(=O)=O)c(-c3cccc(-c4nc5cc(Cl)cnc5[nH]4)c3)cc12 [Example 331] | 1.8 nM
CNC(=O)c1c(-c2ccc(F)cc2)oc2cc(N(C)S(C)(=O)=O)c(-c3cccc(-c4nc5ccccc5n4C)c3)cc12 [Example 332] | 9.6 nM
CNC(=O)c1c(-c2ccc(F)cc2)oc2cc(N(C)S(C)(=O)=O)c(-c3cccc(-c4nc5ccncc5[nH]4)c3)cc12 [Example 333] | 6 nM
CNC(=O)c1c(-c2ccc(F)cc2)oc2cc(N(C)S(C)(=O)=O)c(-c3ccc(F)c(-c4nc5ccncc5[nH]4)c3)cc12 [Example 334] | 3.3 nM
CNC(=O)c1c(-c2ccc(F)cc2)oc2cc(N(C)S(C)(=O)=O)c(-c3cc(-c4nc5ccncc5[nH]4)ccc3F)cc12 [Example 335] | 26.4 nM
CNC(=O)c1c(-c2ccc(F)cc2)oc2cc(N(C)S(C)(=O)=O)c(-c3cccc(-c4nc5nccnc5[nH]4)c3)cc12 [Example 336] | 2.7 nM
CNC(=O)c1c(-c2ccc(F)cc2)oc2cc(N(C)S(C)(=O)=O)c(-c3ccc(F)c(-c4nc5nccnc5[nH]4)c3)cc12 [Example 337] | 7.8 nM
CNC(=O)c1c(-c2ccc(F)cc2)oc2cc(N(C)S(C)(=O)=O)c(-c3ccc(OC)c(-c4nc5nccnc5[nH]4)c3)cc12 [Example 338] | 1.5 nM
CNC(=O)c1c(-c2ccc(F)cc2)oc2cc(N(C)S(C)(=O)=O)c(-c3cc(OC)cc(-c4nc5nccnc5[nH]4)c3)cc12 [Example 339] | 4 nM
CNC(=O)c1c(-c2ccc(F)cc2)oc2cc(N(C)S(C)(=O)=O)c(-c3ccc(Cl)c(-c4nc5nccnc5[nH]4)c3)cc12 [Example 340] | 15.8 nM
CNC(=O)c1c(-c2ccc(F)cc2)oc2cc(N(C)S(C)(=O)=O)c(-c3cccc(-c4nc5cncnc5[nH]4)c3)cc12 [Example 341] | 14.6 nM
CNC(=O)c1c(-c2ccc(F)cc2)oc2cc(N(C)S(C)(=O)=O)c(-c3ccc(F)c(-c4nc5cncnc5[nH]4)c3)cc12 [Example 342] | 5.1 nM
CNC(=O)c1c(-c2ccc(F)cc2)oc2cc(N(C)S(C)(=O)=O)c(-c3ccc(OC)c(-c4nc5cncnc5[nH]4)c3)cc12 [Example 344] | 2.2 nM
CNC(=O)c1c(-c2ccc(F)cc2)oc2cc(N(C)S(C)(=O)=O)c(-c3cc(OC)cc(-c4nc5cncnc5[nH]4)c3)cc12 [Example 345] | 2.1 nM
CNC(=O)c1c(-c2ccc(F)cc2)oc2cc(N(C)S(C)(=O)=O)c(-c3cccc(-c4nc5cncnc5[nH]4)c3O)cc12 [Example 346] | 165 nM
CNC(=O)c1c(-c2ccc(F)cc2)oc2cc(N(C)S(C)(=O)=O)c(-c3ccc(Cl)c(-c4nc5cncnc5[nH]4)c3)cc12 [Example 347] | 8.1 nM
CNC(=O)c1c(-c2ccc(F)cc2)oc2cc(N(C)S(C)(=O)=O)c(-c3cc(C#N)cc(-c4nc5cncnc5[nH]4)c3)cc12 [Example 348] | 72.7 nM
CNC(=O)c1c(-c2ccc(F)cc2)oc2cc(N(C)S(C)(=O)=O)c(-c3ccc(OC)c(-c4nc5c(N)ncnc5[nH]4)c3)cc12 [Example 349] | 5.7 nM
CNC(=O)c1c(-c2ccc(F)cc2)oc2cc(N(C)S(C)(=O)=O)c(-c3cc(F)cc(-c4nc5c(N)ncnc5[nH]4)c3)cc12 [Example 350] | 0.7 nM
CNC(=O)c1c(-c2ccc(F)cc2)oc2cc(N(C)S(C)(=O)=O)c(-c3cccc(-c4ccc5cccnc5c4)c3)cc12 [Example 353] | 4.2 nM
CNC(=O)c1c(-c2ccc(F)cc2)oc2cc(N(C)S(C)(=O)=O)c(-c3cccc(-c4cc5ccc(OC)cc5[nH]4)c3)cc12 [Example 356] | 5.9 nM
CNC(=O)c1c(-c2ccc(F)cc2)oc2cc(N(C)S(C)(=O)=O)c(-c3cccc(-c4cc5ccc(OCc6ccccc6)cc5[nH]4)c3)cc12 [Example 360] | 30.5 nM
